Experiments:
[1] = system: Panc1 (pancreatic cancer) cells; assay: SRB growth inhibition, Panc1; assay type: cell-based, human; conditions: 96 hr, SRB assay; read-out: short-term 96 hr IC50 Panc1
Method: (§1) Human cancer cell lines and the somatic human cell line WI-38 (lung fibroblast) were purchased from the American Type Culture Collection. Cell lines were maintained in appropriate medium supplemented with 10% foetal bovine serum (Invitrogen, UK), 2 mM L-glutamine (Invitrogen, Netherlands), and other components as specified by the suppliers. Cell lines were maintained at 37° C., 5% CO2 and routinely passaged. Drugs were dissolved in DMSO and filtered through 0.22 μm pore-size filter units before addition to cell line appropriate media. Cellular growth inhibition was measured using the sulforhodamine B (SRB) assay in 96 well plates. Fifty percent inhibitory concentrations (IC50) were determined by taking the mean absorbance at 540 nm for each drug concentration expressed as a percentage of the absorbance of untreated control wells.

[2] = system: Hsp90A sequence from the HSP90 promoter; assay: FRET quadruplex stabilisation assay, Hsp90A; assay type: binding; conditions: compound at 1 μM, 60 mM potassium cacodylate buffer pH 7.4
Source text: (§2) The ability of the naphthalene diimide compounds to stabilize quadruplex DNA sequences was investigated using a fluorescence resonance energy transfer (FRET) assay modified to be used as a high-throughput screen in a 96-well format. Several quadruplex sequences were studied (including the human telomeric G-quadruplex DNA sequence 5′-FAM-d(GGG[TTAGGG]3)-TAMRA-3′ and the duplex sequence 5′-FAM-d[…]-HEG-[…]-TAMRA-3′ (HEG linker: [(—CH2—CH2—O—)6.
(§3) The labelled oligonucleotides have attached to them the donor fluorophore FAM: 6-carboxyfluorescein and the acceptor fluorophore TAMRA: 6-carboxytetramethylrhodamine. The FRET probe sequences were diluted from stock to the correct concentration (400 nM) in a 60 mM potassium cacodylate buffer (pH 7.4) and then annealed by heating to 85° C. for 10 min, followed by cooling to room temperature in the heating block. The compound was stored as a 10 mM stock solution in DMSO; final solutions (at 2× concentration) were prepared using 10 mM HCl in the initial 1:10 dilution, after which 60 mM potassium cacodylate buffer (pH 7.4) was used in all subsequent steps. The maximum HCl concentration in the reaction volume (at a ligand concentration of 20 μM) is thus 200 μM, well within the range of the buffer used. Relevant controls were also performed to check for interference with the assay. 96-Well plates (MJ Research, Waltham, Mass.) were prepared by aliquoting 50 μl of the annealed DNA into each well, followed by 50 μl of the compound solutions. Measurements were made on a DNA Engine Opticon (MJ Research) with excitation at 450-495 nm and detection at 515-545 nm. Fluorescence readings were taken at intervals of 0.5° C. in the range 30-100° C., with a constant temperature being maintained for 30 s prior to each reading to ensure a stable value. Final analysis of the data was carried out using a script written in the program Origin 7.0 (OriginLab Corp., Northampton, Mass.). The advanced curve-fitting function in Origin 7.0 was used for calculation of ΔTm values. All determinations were performed in triplicate or better. Esds in ΔTm are ±0.1° C.

A549 (lung cancer) cells = assay: SRB growth inhibition, A549; assay type: cell-based, human; conditions: 96 hr, SRB assay; read-out: short-term 96 hr IC50 A549
Method: as §1

[3] = system: human telomeric (F21T) G-quadruplex DNA; assay: FRET quadruplex stabilisation assay, F21T; assay type: binding; conditions: compound at 1 μM, 60 mM potassium cacodylate buffer pH 7.4
Source text: as §2, §3

[4] = system: Kras32 sequence from the promoter region of the kras gene; assay: FRET quadruplex stabilisation assay, Kras32; assay type: binding; conditions: compound at 1 μM, 60 mM potassium cacodylate buffer pH 7.4
Source text: as §2, §3

MCF7 (breast) cells = assay: SRB growth inhibition, MCF7; assay type: cell-based, human; conditions: 96 hr, SRB assay; read-out: short-term 96 hr IC50 MCF7
Method: as §1

[5] = system: Tloop (representing duplex DNA); assay: FRET assay, Tloop duplex DNA; assay type: binding; conditions: compound at 1 μM, 60 mM potassium cacodylate buffer pH 7.4
Source text: as §2, §3

[6] = system: Bcl-2 sequence from the promoter region of the bcl-2 gene; assay: FRET quadruplex stabilisation assay, Bcl-2; assay type: binding; conditions: compound at 1 μM, 60 mM potassium cacodylate buffer pH 7.4
Source text: as §2, §3

[7] = system: Hsp90B sequence from the HSP90 promoter; assay: FRET quadruplex stabilisation assay, Hsp90B; assay type: binding; conditions: compound at 1 μM, 60 mM potassium cacodylate buffer pH 7.4
Source text: as §2, §3

[8] = system: WI38 (lung fibroblast) cells; assay: SRB growth inhibition, WI38; assay type: cell-based, human; conditions: 96 hr, SRB assay; read-out: short-term 96 hr IC50 WI38
Method: as §1

[9] = system: Mia-PaCa2 (pancreatic cancer) cells; assay: SRB growth inhibition, MiaPaCa2; assay type: cell-based, human; conditions: 96 hr, SRB assay; read-out: short-term 96 hr IC50 MiaPaCa2
Method: as §1

[10] = system: ALT (Alternative Lengthening of Telomeres) cell line; assay: SRB growth inhibition, ALT; assay type: cell-based, human; conditions: 96 hr, SRB assay; read-out: short-term 96 hr IC50 ALT
Method: as §1

[11] = system: Kras21 sequence from the promoter region of the kras gene; assay: FRET quadruplex stabilisation assay, Kras21; assay type: binding; conditions: compound at 1 μM, 60 mM potassium cacodylate buffer pH 7.4
Source text: as §2, §3

## CCN(CC)CCNc1cc2c3c(ccc4c3c1C(=O)N(CCCN1CCOCC1)C4=O)C(=O)N(CCCN1CCOCC1)C2=O [Compound 4i, 4-((2-(diethylamino)ethyl)amino)-2,7-bis(3-morpholinopropyl)benzo[Imn][3,8]phenanthroline-1,3,6,8(2H,7H)-tetraone]
[1]
  IC50: 909 nM
[2]
  ΔTm Hsp90A: 2.7 °C
A549 (lung cancer) cells
  IC50: 825 nM
[3]
  ΔTm F21T: <2 °C
[4]
  ΔTm Kras32: 0.2 °C
MCF7 (breast) cells
  IC50: 3330 nM
[5]
  ΔTm Tloop: 0 °C
[6]
  ΔTm Bcl-2: 2.4 °C
[7]
  ΔTm Hsp90B: 4.5 °C
[8]
  IC50: 5530 nM
[9]
  IC50: 1080 nM
[10]
  IC50: 2670 nM
[11]
  ΔTm Kras21: 0.7 °C

## O=C1c2ccc3c4c(c(NCCCCN5CCCC5)cc(c24)C(=O)N1CCCN1CCOCC1)C(=O)N(CCCN1CCOCC1)C3=O [Compound 4e, 2,7-bis(3-morpholinopropyl)-4-((4-(pyrrolidin-1-yl)butyl)amino)benzo[Imn][3,8]phenanthroline-1,3,6,8(2H,7H)-tetraone]
[1]
  IC50: 33 nM
[2]
  ΔTm Hsp90A: 20.6 °C
A549 (lung cancer) cells
  IC50: 26 nM
[3]
  ΔTm F21T: 15.9 °C
[4]
  ΔTm Kras32: 6.6 °C
MCF7 (breast) cells
  IC50: 222 nM
[5]
  ΔTm Tloop: 0.2 °C
[6]
  ΔTm Bcl-2: 16.1 °C
[7]
  ΔTm Hsp90B: 16.9 °C
[8]
  IC50: 1220 nM
[9]
  IC50: 36 nM
[10]
  IC50: 89 nM
[11]
  ΔTm Kras21: 11.7 °C
